Measurements as given in patent publication US8956996B2, “Method for reducing nitrous oxide emission from soils” (BASF SE, priority 2009, dated 2015).

Tests used:
[1] = tested on: N2O emission from soil; assay: Loss of nitrate and ammonium nitrogen in LiHof soil, pyraclostrobin and boscalid (Example 3); conditions: for Effect on N2O emission from soil (in words): LiHof soil, fertilizer applied 1 day after compound (A); for Loss of NO3-N + NH4-N in mg N/10 g soil in 48 h: soil type LiHof, pyraclostrobin 250 g/ha, boscalid 2.33 g/L, fertilizer 1 day after compound (A), UTC 0.52
[2] = tested on: N2O emission from soils; assay: Greenhouse trial: N2O emission from potted field soil planted with summer wheat (Example 4); assay type: in vivo; conditions: for Mean mg N2O-N/m^2: 4 weeks
[3] = tested on: N2O emission from soils; assay: N2O emission from potted corn after pyraclostrobin seed treatment, NPK fertilizer applied 10 days later (Example 1); assay type: in vivo, Zea mays
[4] = tested on: N2O emission from soil; assay: Loss of nitrate and ammonium nitrogen in soil samples, Conway method, as indirect measure of N2O produced (Example 2); conditions: for Loss of NO3-N + NH4-N in mg N/10 g soil in 48 h: fertilizer 1 day after compound (A)

| SMILES | Effect on N2O emission from soil (in words) [1] | Loss of NO3-N + NH4-N in mg N/10 g soil in 48 h [1] [mg N/10 g soil] | Effect on N2O emission from soils (in words) ([2]; combined application of compound (A) and compound (B)) | Mean mg N2O-N/m^2 ([2]; pyraclostrobin 250 g/ha 8 days before the application of the fertilizer (ammonium nitrate 100 kg/ha)) [mg N2O-N/m^2] | Mean mg N2O-N/m^2 ([2]; pyraclostrobin 250 g/ha together with the application of the fertilizer (ammonium nitrate 100 kg/ha)) [mg N2O-N/m^2] | Effect on N2O emission from soils (in words) ([2]; pyraclostrobin and ammonium nitrate with time lag of 8 days, compared to fertilizer alone or joint application) | N2O increase over ambient ([3]; seed treatment 5 g/100 kg seeds, 0.3% NPK fertilizer HaKaPhos Blue applied on day 10, peak value on day 2 of three day measurement, N = 14, UTC 190) [ppbv/h] | Effect on N2O emission from soils (in words) ([3]; seed treatment, fertilizer applied 10 days after compound (A)) | Loss of NO3-N + NH4-N in mg N/10 g soil in 48 h ([4]; soil type LiHof, UTC 0.54) [mg N/10 g soil] | Loss of NO3-N + NH4-N in mg N/10 g soil in 48 h ([4]; soil type Sp 2.1, UTC 0.16) [mg N/10 g soil] | Loss of NO3-N + NH4-N in mg N/10 g soil in 48 h ([4]; soil type Sp 2.2, UTC 0.19) [mg N/10 g soil] | Loss of NO3-N + NH4-N in mg N/10 g soil in 48 h ([4]; soil type Sp 2.3, UTC 0.38) [mg N/10 g soil] | Loss of NO3-N + NH4-N in mg N/10 g soil in 48 h ([4]; soil type Sp 2.4, UTC 0.37) [mg N/10 g soil] | Loss of NO3-N + NH4-N in mg N/10 g soil in 48 h ([4]; soil type Sp 5M, UTC 0.27) [mg N/10 g soil] | Loss of NO3-N + NH4-N in mg N/10 g soil in 48 h ([4]; soil type Sp 6S, UTC 0.48) [mg N/10 g soil] | Effect on N2O emission from soil (in words) ([4]; various types of soil, fertilizer applied 1 day after compound (A)) |
| --- | --- | --- | --- | --- | --- | --- | --- | --- | --- | --- | --- | --- | --- | --- | --- | --- |
| O=C(Nc1ccccc1-c1ccc(Cl)cc1)c1cccnc1Cl [Boscalid, boscalid] | significantly reduced the N2O emission from soil | 0.35 |  |  |  |  |  |  |  |  |  |  |  |  |  |  |
| COC(=O)N(OC)c1ccccc1COc1ccn(-c2ccc(Cl)cc2)n1 [Pyraclostrobin, pyraclostrobin] | significantly reduced the N2O emission from soil | 0.09 | does not result in a reduction of N2O emission from soils | 100.9 | 314.9 | significantly reduced | 107 | significantly reduce the N2O emission from soils | 0.06 | 0.03 | 0.02 | 0.18 | 0.13 | 0.10 | 0.21 | significantly reduce the N2O emission from soil |
